In US12257247B2 (Monte Rosa Therapeutics AG, priority 2023, dated 2025):
Read-outs that look alike come from different tables or passages of the source.

Target: T1, VAV1 (Homo sapiens, UniProt P15498+Q96SW2)
T1 construct: A heterozygous VAV1 C-terminal HiBiT knock-in pool was generated at Monte Rosa Therapeutics from a clonal Jurkat cell; endogenous in cells; host or cells: Jurkat clone stably expressing LgBiT, homozygous GSPT1-G575N; heterozygous VAV1-HiBiT knock-in pool
Assay: VAV1 degradation activity, VAV1-HiBiT knock-in Jurkat luminescence assay (Example A, Table 1)
Type: cell-based
Conditions: VAV1-HiBiT knock-in Jurkat cells; for Dmax: Jurkat
Method in brief: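 Luminescence was measured at 6 and 24 h after adding compound (10 μM stock) to VAV1-HiBiT knock-in Jurkat cells, which had been pre-incubated ~16 h at 37° C. in RPMI/10% FBS containing Endurazine. EC50 values came from control-normalised responses fitted to a 3-parameter logistic model with hillslope fixed at 1.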

[1] = luminescence read at 6 and 24 hours, read-out: VAV1 Dmax %
[2] = luminescence read at 6 and 24 hours, read-out: VAV1 Dmax %, class
[3] = luminescence read at 6 and 24 hours, read-out: VAV1 DC50
[4] = luminescence read at 6 and 24 hours, read-out: VAV1 DC50 (nM), class

Dmax [1] [%]	Dmax [2] [%]	DC50 [3] [nM]	DC50 [4] [nM]	Dmax (luminescence read at 6 and 24 hours after compound addition, read-out: VAV1 Dmax %) [%]	Dmax (luminescence read at 6 and 24 hours after compound addition, read-out: VAV1 Dmax %, class) [%]	DC50 (luminescence read at 6 and 24 hours after compound addition, read-out: VAV1 DC50) [nM]	DC50 (luminescence read at 6 and 24 hours after compound addition, read-out: VAV1 DC50 (nM), class) [nM]	Structure (SMILES)
90.2	> 90	47.7	≤ 100					CC(Oc1ccccn1)c1ccc(-c2cccc(C3CCC(=O)NC3=O)c2Cl)cc1 (stereo not drawn) [Compound 165, 3-(2-chloro-4′-(1-(pyridin-2-yloxy)ethyl)-[1,1′-biphenyl]-3-yl)piperidine-2,6-dione]
47.3	< 60	7990	> 1000					O=C1CCC(c2cccc(-c3ccc(N4CCOC4=O)cc3)c2Cl)C(=O)N1 (stereo not drawn) [Compound 212, 3-(2-chloro-4′-(2-oxooxazolidin-3-yl)-[1,1′-biphenyl]-3-yl)piperidine-2,6-dione]
96	> 90	8.75	≤ 100					CN1CCCN(c2ccc(-c3cccc(C4CCC(=O)NC4=O)c3Cl)cc2F)C1=O (stereo not drawn) [Compound 436, 3-(2-chloro-3′-fluoro-4′-(3-methyl-2-oxotetrahydropyrimidin-1(2H)-yl)-[1,1′-biphenyl]-3-yl)piperidine-2,6-dione]
80.2	60 to 90	113	100 to 1000					CN1CCCN(Cc2ncc(-c3cccc(C4CCC(=O)NC4=O)c3Cl)cc2F)C1=O (stereo not drawn) [Compound 383, 3-(2-chloro-3-(5-fluoro-6-((3-methyl-2-oxotetrahydropyrimidin-1(2H)-yl)methyl)pyridin-3-yl)phenyl)piperidine-2,6-dione]
8.11	< 60	≥ 10000	> 1000					Cc1cc(OCc2ccn(C)n2)ccc1-c1ccc(Cl)c(C2CCC(=O)NC2=O)c1 (stereo not drawn) [Compound 152]
39.8	< 60	≥ 10000	> 1000					Cn1ccc(COc2ccc(-c3cccc(C4CCC(=O)NC4=O)c3)cc2)n1 (stereo not drawn) [Compound 151, 3-(4′-((1-methyl-1H-pyrazol-3-yl)methoxy)-[1,1′-biphenyl]-3-yl)piperidine-2,6-dione]
98.3	> 90	1.56	≤ 100					CN1CCC(C)(C)N(c2ccc(-c3cccc(C4CCC(=O)NC4=O)c3Cl)cc2)C1=O (stereo not drawn) [Compound 378, 3-(2-chloro-4′-(3,6,6-trimethyl-2-oxotetrahydropyrimidin-1(2H)-yl)-[1,1′-biphenyl]-3-yl)piperidine-2,6-dione]
71.7	60 to 90	234	100 to 1000					O=C1CCC(c2cccc(-c3cnc(N4C(=O)CCC45CC5)c(F)c3)c2Cl)C(=O)N1 (stereo not drawn) [Compound 364, 3-(2-chloro-3-(5-fluoro-6-(5-oxo-4-azaspiro[2.4]heptan-4-yl)pyridin-3-yl)phenyl)piperidine-2,6-dione]
61.5	60 to 90	517	100 to 1000					O=C1CCC(c2cccc(-c3ccc(N4CCC(Cn5ccccc5=O)CC4)cc3)c2Cl)C(=O)N1 (stereo not drawn) [Compound 166, 3-(2-chloro-4′-(4-((2-oxopyridin-1(2H)-yl)methyl)piperidin-1-yl)-[1,1′-biphenyl]-3-yl)piperidine-2,6-dione]
92	> 90	16.1	≤ 100					O=C1CCC(c2cccc(-c3ccc(CC4COC4)cc3)c2Cl)C(=O)N1 (stereo not drawn) [Compound 233, 3-(2-chloro-4′-(oxetan-3-ylmethyl)-[1,1′-biphenyl]-3-yl)piperidine-2,6-dione]
40.9	< 60	≥ 10000	> 1000					O=C1CCC(c2cccc(-c3ccc(OCCN4CCCC4)cc3)c2Cl)C(=O)N1 (stereo not drawn) [Compound 136]
29.2	< 60	≥ 10000	> 1000					Cn1ccc(COc2ccc(-c3cccc(C4CCC(=O)NC4=O)c3Cl)c(Cl)c2)n1 (stereo not drawn) [Compound 177, 3-(2,2′-dichloro-4′-((1-methyl-1H-pyrazol-3-yl)methoxy)-[1,1′-biphenyl]-3-yl)piperidine-2,6-dione]
97	> 90	7	≤ 100					O=C1CCC(c2cccc(-c3ccc(-n4ccccc4=O)cc3)c2Cl)C(=O)N1 (stereo not drawn) [Compound 185, 3-(2-chloro-4′-(2-oxopyridin-1(2H)-yl)-[1,1′-biphenyl]-3-yl)piperidine-2,6-dione]
94.5	> 90	18.5	≤ 100					Cn1ccc(OCc2ccc(-c3cccc(C4CCC(=O)NC4=O)c3Cl)cc2)n1 (stereo not drawn) [Compound 160, 3-(2-chloro-4′-(((1-methyl-1H-pyrazol-3-yl)oxy)methyl)-[1,1′-biphenyl]-3-yl)piperidine-2,6-dione]
95.2	> 90	17.5	≤ 100					O=C1CCC(c2cccc(-c3ccc(-n4ccc(F)cc4=O)cc3)c2Cl)C(=O)N1 (stereo not drawn) [Compound 245, 3-[2-chloro-3-[4-(4-fluoro-2-oxo-1-pyridyl)phenyl]phenyl]piperidine-2,6-dione]
88.7	60 to 90	203	100 to 1000					O=C1CC[C@H](c2cccc(-c3ccc(Cn4ccccc4=O)cc3)c2Cl)C(=O)N1 [Compound 201, (R)-3-(2-chloro-4′-((2-oxopyridin-1(2H)-yl)methyl)-[1,1′-biphenyl]-3-yl)piperidine-2,6-dione]
81.5	60 to 90	8400	> 1000					Cn1ccc(COc2ccc(-c3ccc(Cl)c(C4CCC(=O)NC4=O)c3Cl)cc2)n1 (stereo not drawn) [Compound 146, 3-(2,4-dichloro-4′-((1-methyl-1H-pyrazol-3-yl)methoxy)-[1,1′-biphenyl]-3-yl)piperidine-2,6-dione]
75.5	60 to 90	122	100 to 1000					O=C1CCC(c2cccc(-c3ccc(N4C(=O)CCC45CC5)nc3)c2Cl)C(=O)N1 (stereo not drawn) [Compound 384, 3-(2-chloro-3-(6-(5-oxo-4-azaspiro[2.4]heptan-4-yl)pyridin-3-yl)phenyl)piperidine-2,6-dione]
96.5	> 90	8.36	≤ 100					O=C1CCC(c2cccc(-c3ccc(N4C(=O)CCCC4C(F)(F)F)cc3)c2Cl)C(=O)N1 (stereo not drawn) [Compound 244, 3-(2-chloro-4′-(2-oxo-6-(trifluoromethyl)piperidin-1-yl)-[1,1′-biphenyl]-3-yl)piperidine-2,6-dione]
65.5	60 to 90	262	100 to 1000					O=C1CCC(c2cccc(-c3ccc(CN4C(=O)CCCC45CC5)nc3)c2Cl)C(=O)N1 (stereo not drawn) [Compound 404, 3-(2-chloro-3-(6-((5-oxo-4-azaspiro[2.5]octan-4-yl)methyl)pyridin-3-yl)phenyl)piperidine-2,6-dione]
				97.8	> 90	3.95	≤ 100	Cn1ccc(CN2C(=O)COc3cc(-c4cccc(C5CCC(=O)NC5=O)c4Cl)ccc32)n1 (stereo not drawn) [Compound 502, 3-(2-chloro-3-(4-((1-methyl-1H-pyrazol-3-yl)methyl)-3-oxo-3,4-dihydro-2H-benzo[b][1,4]oxazin-7-yl)phenyl)piperidine-2,6-dione]
40	< 60	5770	> 1000					O=C1CCC(c2cccc(-c3ccc(C4(N5CCCCC5=O)CC4)cc3)c2Cl)C(=O)N1 (stereo not drawn) [Compound 337, 3-[2-chloro-3-[4-[1-(2-oxo-1-piperidyl)cyclopropyl]phenyl]phenyl]piperidine-2,6-dione]
94.8	> 90	12.8	≤ 100					Cn1cnc(Cn2c(=O)oc3cc(-c4cccc(C5CCC(=O)NC5=O)c4Cl)ccc32)c1 (stereo not drawn) [Compound 392, 3-(2-chloro-3-(3-((1-methyl-1H-imidazol-4-yl)methyl)-2-oxo-2,3-dihydrobenzo[d]oxazol-6-yl)phenyl)piperidine-2,6-dione]
97.7	> 90	5.85	≤ 100					O=C1CCC(c2cccc(-c3ccc(N4C(=O)CCC45CC5)cc3)c2Cl)C(=O)N1 (stereo not drawn) [Compound 414, 3-(2-chloro-4′-(5-oxo-4-azaspiro[2.4]heptan-4-yl)-[1,1′-biphenyl]-3-yl)piperidine-2,6-dione]
29.2	< 60	≥ 10000	> 1000					O=C1CCC(c2cccc(-c3ccc(N4CC5(COC5)CC4=O)cc3)c2Cl)C(=O)N1 (stereo not drawn) [Compound 386, 3-(2-chloro-4′-(7-oxo-2-oxa-6-azaspiro[3.4]octan-6-yl)-[1,1′-biphenyl]-3-yl)piperidine-2,6-dione]
84.4	60 to 90	76.4	≤ 100					O=C1CCC(c2cc(F)cc(-c3ccc(-n4ccccc4=O)cc3)c2Cl)C(=O)N1 (stereo not drawn) [Compound 361, 3-(2-chloro-5-fluoro-4′-(2-oxopyridin-1(2H)-yl)-[1,1′-biphenyl]-3-yl)piperidine-2,6-dione]
45.2	< 60	≥ 10000	> 1000					O=C1CCC(c2cccc(-c3ccc(N4C(=O)CC45CCOCC5)cc3)c2Cl)C(=O)N1 (stereo not drawn) [Compound 418, 3-(2-chloro-4′-(2-oxo-7-oxa-1-azaspiro-[3.5]nonan-1-yl)-[1,1′-biphenyl]-3-yl)piperidine-2,6-dione]
